The values below are quoted from earlier work in US20040087644A1, “Pharmaceutical composition in capsules that comprises a non-steroidal antiinflamatory and an optiate analgesic for handling pain” (Leopoldo Espinosa Abdala, priority 2002, published 2004).

For data set [1] the following is noted: in vivo.
In another data set the test system is pain. The following applies: clinical studies, compared with opiates.

Consider `O=C(c1ccccc1)c1ccc2n1CCC2C(=O)O` (centres unmarked) [Ketorolac], for which the “dose excreted through the urine without changes” value in data set [1] is “About 90%”. For the same compound, in the data set with pain, the analgesic efficiency entry is “comparable with opiates”.
